For data set [1] the following is noted: reported value, cited from earlier work.
Data set [2] concerns adenosine deaminase (ADA). Nature of the data set: ADA-mediated deamination monitored by absorption and emission. It counts as biochemical.
The mark [3] stands for this setting: Abs: monitored by absorption, first order fit.
Setting [4] is: Em: monitored by emission, first order fit.

The structures appear in SMILES notation. Read-outs that look alike come from different tables or passages of the source.

Regarding `O=c1ccn([C@@H]2O[C@H](CO)[C@@H](O)[C@H]2O)c(=O)[nH]1` [uridine], in data set [1] (first pKa), the pKa is 9.20–9.25.
Turning to `Nc1ncnc2c([C@@H]3O[C@H](CO)[C@@H](O)[C@H]3O)snc12` [^tzA], the kapp in data set [2] (setting [3]) and in data set [2] (setting [4]) was 220 ± 10 × 10^−4 s^−1 in each case. The t1/2 in data set [2] (setting [3]) is 0.32 ± 0.02 × 10^2 s; in data set [2] (setting [4]), 0.31 ± 0.02 × 10^2 s; in data set [2] (calculated from absorption spectroscopy data) it was 32 ± 2 s; in data set [2] (calculated from changes in emission spectra) it was 31 ± 2 s.
With `Nc1nc2c(ncn2[C@@H]2O[C@H](CO)[C@@H](O)[C@H]2O)c(=O)[nH]1` [G, guanosine], the pKa is listed as 3.2–3.3 in data set [1] (first pKa) and 9.2–9.6 in data set [1] (second pKa).
`Nc1ncnc2c1ncn2[C@@H]1O[C@H](CO)[C@@H](O)[C@H]1O` [A, adenosine]: in data set [2] (setting [3]), the kapp is listed as 120 ± 10 × 10^−4 s^−1 and the t1/2 is listed as 0.57 ± 0.01 × 10^2 s. The half-life (as a rule, the time needed for the level to fall by half in the phase considered) in data set [2] (adenosine deaminase (ADA) enzyme reaction) was 57 s. Besides, the pKa in data set [1] (first pKa) is reported as 3.6–4.2.

These data come from publication PMC8891053 (Chemistry (Weinheim an der Bergstrasse, Germany), 2022).
